“Also recorded” adds a separate entry of the source.
How the values were obtained:
human colon cancer HT-29 = system: human colon cancer HT-29; set-up: method as in doi:10.1016/j.tetasy.2016.06.009; conditions: colon cancer line; cited from earlier work
DAOY cells = test: Neutral red cell viability assay, DAOY; type: cell-based, human; conditions: for reduction of cell viability, DAOY: 50 µM, 24 h, first screening; for IC50: Homo sapiens, Daoy, 24 h treatment, neutral red, read-out: LD50 DAOY (MB)
Method: (§1) The human hepatocellular carcinoma (HCC) cell line HUH7 was purchased from ATCC (LGC standards GmbH, Wesel, Germany). The Austrian human HCC cell line AKH12 has been well characterized and was kindly provided by Prof. Bettina Grasl-Kraupp. HUH7 cells were cultured in Dulbecco’s modified Eagle’s medium (Thermo Fisher Scientific, Waltham, MA, USA) containing 10% heat-inactivated fetal bovine serum (FBS) (Sigma-Aldrich, St. Louis, MO, USA), 1% penicillin-streptomycin (10,000 U/mL) (Thermo Fisher Scientific, Waltham, MA, USA), and 1% minimum essential medium nonessential amino acids (100x) (Thermo Fisher Scientific, Waltham, MA, USA). AKH12 cells were cultured in RPMI1640 medium (Sigma-Aldrich, St. Louis, MO, USA) containing 10% heat-inactivated FBS. DAOY and D283Med (short D283) medulloblastoma (MB) cells were purchased from ATCC (LGC standards GmbH, Wesel, Germany). D425Med (short D425) and UW228-2 were provided by Thomas Ströbel from the Institute of Neurology Medical University of Vienna. The cells were cultured in Dulbecco’s modified Eagle’s medium (Sigma-Aldrich, St. Louis, MO, USA) containing 10% FBS (Sigma-Aldrich, St. Louis, MO, USA), 2% L-Glutamine (Sigma-Aldrich, St. Louis, MO, USA), and 0.2% Normocin (Sigma-Aldrich, St. Louis, MO, USA). U-251 MG (short U251) glioblastoma (GBM) cell line was purchased from Sigma-Aldrich and cultured in Dulbecco’s modified Eagle’s medium (Sigma-Aldrich, St. Louis, MO, USA) containing 10% FBS (Sigma-Aldrich, St. Louis, MO, USA), 2% L-Glutamine (Sigma-Aldrich, St. Louis, MO, USA), and 0.2% Normocin (Sigma-Aldrich, St. Louis, Missouri, USA). Human umbilical vein endothelial cells (HUVECs) were provided by Brigitte Winter from the Department of Surgery Medical University of Vienna and were grown in endothelial cell growth medium-2 BulletKitTM (Lonza, Basel, Switzerland) under standard tissue culture conditions. All cells were incubated at 37 °C in a 5% CO2 atmosphere and regularly checked for mycoplasma contamination.
(§2) Cell viability was determined using a neutral red assay, as previously described. The cells were placed in 24-well plates and grown to reach 70–80% confluency prior to treatment. After treatment for 24 h, cells were incubated with neutral red at a concentration of 50 µg/mL in serum-free medium for 2 h at 37 °C. Cells were then washed 2x and incubated with 1% acetic acid in 70% ethanol. The dye concentration was measured photometrically at 562 nm. The percentage of survival was calculated considering DMSO-treated (indicated as 0 µM concentration) cells as 100% control.
(§3) LD50 was defined as the amount of a toxic agent required to eliminate 50% of the cell population. The LD50 was calculated in each experiment from the respective dose–response curve. All experiments were performed in triplicate wells.

HUH7 cells = test: Neutral red cell viability assay, HUH7; type: cell-based, human; conditions: Homo sapiens, Huh-7; 24 h treatment, neutral red; read-out: LD50 HUH7 (HCC)
Method: as §1, §2, §3

AKH12 cells = test: Neutral red cell viability assay, AKH12; type: cell-based, human; conditions: for reduction of cell viability, AKH12: 50 µM, 24 h, first screening; for IC50: Homo sapiens, 24 h treatment, neutral red, read-out: LD50 AKH12 (HCC)
Method: as §1, §2, §3

HUVEC cells [1] = test: Neutral red cell viability assay, HUVEC (Table 1); type: cell-based; conditions: Table 1, nonmalignant primary cells, 24 h
Method: as §1, §2, §3

D425 cells = test: Cell viability assay (suspension cell line), MTT/CellTiter Blue, D425; type: cell-based, human; conditions: for reduction of cell viability, D425: 50 µM, 24 h, first screening; for IC50: Homo sapiens, read-out: LD50 D425 (MB); for IC50 / LD50 D425 (MB): 24 h treatment, suspension cell assay; for HUVEC/D425 LD50 Fold Change: ratio of LD50 HUVEC to LD50 D425; for D425 cell viability as compared to HUVEC cells: dose-response 24 h, Student's t-test, p ≤0.05 / p ≤0.01
Method: as §1, §3
(§4) One day before treatment, 2 × 10^4 of D425Med or HUVEC cells were seeded into 24-well plates and incubated at 37 °C in a humidified atmosphere containing 5% CO2.The cells were treated with different compounds for 24 h. A […] assay using the CellTiter Blue reagent (Promega, Fitchburg, Wisconsin, USA) was performed according to the manufacturer’s protocol. Experiments were performed in triplicate and repeated three times. The percentage of survival was calculated as the ratio using DMSO-treated (indicated as 0 µM concentration) cells as 100% control.

D283 cells = test: Neutral red cell viability assay, D283; type: cell-based, human; conditions: for reduction of cell viability, D283: 50 µM, 24 h, first screening; for IC50: Homo sapiens, D283, 24 h treatment, read-out: LD50 D283 (MB)
Method: as §1, §2, §3

HUVEC cells [2] = test: Cell viability assay MTT/CellTiter Blue, HUVEC (Table 2); type: cell-based; conditions: Table 2, nonmalignant primary cells, 24 h, assay as for D425
Method: as §1, §3, §4

U251 cells = test: Neutral red cell viability assay, U251; type: cell-based, human; conditions: for decrease of cell viability, U251: 50 µM, 24 h, first screening; for IC50: Homo sapiens, U-251, 24 h treatment, neutral red, read-out: LD50 U251 (GBM)
Method: as §1, §2, §3

UW228-2 cells = test: Neutral red cell viability assay, UW228-2; type: cell-based, human; conditions: for reduction of cell viability, UW228-2: 50 µM, 24 h, first screening; for IC50: Homo sapiens, UW228-2, 24 h treatment, neutral red, read-out: LD50 UW228-2 (MB)
Method: as §1, §2, §3

[3] = Solubility in DMSO for in vitro tests; type: physicochemical; conditions: DMSO used for the in vitro tests
Method: All tested compounds were dissolved in dimethyl sulfoxide (DMSO). […] To assess the anticancer activity of compounds, we tested human hepatocellular carcinoma (HCC), medulloblastoma (MB), and glioblastoma (GBM) cell lines. Further, to compare the effects of selected compounds on nonmalignant primary cells, we used primary human umbilical vein endothelial cells (HUVEC).
We planned to use compounds 8 and 9 as references in the current study. […] In our further studies, we plan to compare activities of all compounds using ethanol as the solvent.

Compound | reduction of cell viability, DAOY (DAOY cells) | IC50 (DAOY cells) | IC50 (HUH7 cells) | reduction of cell viability, AKH12 (AKH12 cells) | IC50 (AKH12 cells) | LD50 HUVEC (HUVEC cells [1]) | reduction of cell viability, D425 (D425 cells) | IC50 (D425 cells) | HUVEC/D425 LD50 Fold Change (D425 cells) | reduction of cell viability, D283 (D283 cells) | IC50 (D283 cells) | LD50 HUVEC (HUVEC cells [2]) | decrease of cell viability, U251 (U251 cells) | IC50 (U251 cells) | reduction of cell viability, UW228-2 (UW228-2 cells) | IC50 (UW228-2 cells) | solubility in DMSO [3] | other results
N.N.[Cl][Pt][Cl] [cisplatin] | – | – | – | – | – | – | – | – | – | – | – | – | – | – | – | – | – | IC50 (human colon cancer HT-29): 9.7 ± 2 µM
CC(c1ccccc1)N1CC(NS(=O)(=O)c2cc(C(F)(F)F)cc(C(F)(F)F)c2)C2CCC1C2 [Compound 11g, 3,5-Bis(trifluoromethyl)-N-((2-((S)-1-phenylethyl)-(1S,4S,5R)-2-azabicyclo[3.2.1]octan-4-yl)benzenesulfonamide] | reduced cell viability | 20.4 ± 1.33 µM | 20 ± 1.1 µM | reduced cell viability below LD50 | 28 ± 1.72 µM | 18.68 ± 1.97 µM | reduced cell viability | 11.2 ± 1.73 µM | 1.42 | reduced cell viability | 17.2 ± 0.89 µM | 16 ± 2.29 µM | more than 50% | 24.8 ± 0.92 µM | reduced cell viability | 20.1 ± 1.34 µM | – | –
CC(c1ccccc1)N1C2CCC(C2)C1CNCC1C2CCC(C2)N1C(C)c1ccccc1 (centres unmarked) [Compound 9] | – | – | – | – | – | – | – | – | – | – | – | – | – | – | – | – | not sufficient; also recorded: insufficiently soluble | –
Cc1ccc(-c2ccc(S(=O)(=O)N(CCN(CC3C4CCC(C4)N3C(C)c3ccccc3)S(=O)(=O)c3ccc(-c4ccc(C)cc4)cc3)CC3C4CCC(C4)N3C(C)c3ccccc3)cc2)cc1 [Compound 12b, Bis-4’-methyl-N,N-{[(1S,3R,4R)-2-((S)-1-phenylethyl)-2-azabicyclo[2.2.1]heptan-3-yl]methyl}-[1,1'-biphenyl]ethyl-4-sulfonamide] | – | – | – | – | – | – | – | – | – | – | – | – | – | – | – | – | not sufficient | melting point: 120 to 125 °C
CC(c1ccccc1)N1C2CCC(C2)C1CN(CCN(CC1C2CCC(C2)N1C(C)c1ccccc1)S(=O)(=O)c1ccc(-c2ccc(Cl)cc2)cc1)S(=O)(=O)c1ccc(-c2ccc(Cl)cc2)cc1 [Compound 12d, Bis-4’-chloro-N,N-{[(1S,3R,4R)-2-((S)-1-phenylethyl)-2-azabicyclo[2.2.1]heptan-3-yl]methyl}-[1,1'-biphenyl]ethyl-4-sulfonamide] | – | – | – | – | – | – | – | – | – | – | – | – | – | – | – | – | not sufficient | melting point: 252 to 255 °C
CC(c1ccccc1)N1C2CCC(C2)C1CNS(=O)(=O)c1ccc(-c2ccccc2)cc1 (centres unmarked) [Compound 10a] | reduced cell viability | 16 ± 1.12 µM | 13.9 ± 1.02 µM | reduced cell viability below LD50 | 15.5 ± 1.3 µM | 11.58 ± 1.11 µM | reduced cell viability | 16.7 ± 2.11 µM | 1.67 | reduced cell viability | 17.7 ± 1.09 µM | 28 ± 1.86 µM | more than 50% | 13.5 ± 0.9 µM | reduced cell viability | 28.8 ± 2.1 µM | – | –
CC(c1ccccc1)N1C2CCC(C2)C1CNS(=O)(=O)c1cc(C(F)(F)F)cc(C(F)(F)F)c1 [Compound 10g, 3,5-Bis(trifluoromethyl)-N-((2-((S)-1-phenylethyl)-(1S,3R,4R)-2-azabicyclo[2.2.1]heptane-3-yl)benzenesulfonamide] | reduced cell viability | 19.2 ± 1.42 µM | 11.7 ± 1.53 µM | reduced cell viability below LD50 | 10.2 ± 1.09 µM | 10.77 ± 0.93 µM | reduced cell viability | 6.61 µM | 2.66 | reduced cell viability | 16 ± 1 µM | 17.62 ± 2.98 µM | more than 50% | 11.8 ± 1.58 µM | reduced cell viability | 12 ± 0.99 µM | – | LD50 D425 (MB) (D425 cells): 6.61 ± 1.52 µM; D425 cell viability as compared to HUVEC cells (D425 cells): significantly reduced D425 cell viability as compared to HUVEC cells
CC(=O)Nc1ccc(S(=O)(=O)N(CCN(CC2C3CCC(C3)N2C(C)c2ccccc2)S(=O)(=O)c2ccc(NC(C)=O)cc2)CC2C3CCC(C3)N2C(C)c2ccccc2)cc1 [Compound 12i, Bis-N,N-(4-(N-(((1S,3R,4R)-2-((S)-1-phenylethyl)-2-azabicyclo[2.2.1]heptan-3-yl)methyl)sulfamoyl)ethyl)phenyl)acetamide] | reduced cell viability | 12.9 ± 1.59 µM | 7.75 ± 0.84 µM | reduced cell viability below LD50 | 5.75 ± 0.47 µM | 3.16 ± 0.15 µM | reduced cell viability | 15.6 ± 0.93 µM | 0.57 | reduced cell viability | 21.8 ± 1.9 µM | 8.91 ± 2.11 µM | more than 50% | 15.3 ± 1.59 µM | reduced cell viability | 28.4 ± 2.11 µM | – | –
CC(c1ccccc1)N1C2CCC(C2)C1CNS(=O)(=O)c1ccc(-c2ccc(F)cc2)cc1 [Compound 10c, 4-(4-Fluorophenyl)-N-((2-((S)-1-phenylethyl)-(1S,3R,4R)-2-azabicyclo[2.2.1]heptane-3-yl)benzenesulfonamide] | reduced cell viability | 16 ± 2.1 µM | 17.3 ± 0.98 µM | reduced cell viability below LD50 | 23.3 ± 2.1 µM | 13.8 ± 1.14 µM | reduced cell viability | 5.38 µM | 3.11 | reduced cell viability | 27.2 ± 2.35 µM | 16.77 ± 0.71 µM | more than 50% | 21.3 ± 1.01 µM | reduced cell viability | 15.7 ± 1.32 µM | – | LD50 D425 (MB) (D425 cells): 5.38 ± 0.77 µM; D425 cell viability as compared to HUVEC cells (D425 cells): significantly reduced D425 cell viability as compared to HUVEC cells
CC(c1ccccc1)N1C2CCC(C2)C1CNCCNCC1C2CCC(C2)N1C(C)c1ccccc1 (centres unmarked) [Compound 8] | – | – | – | – | – | – | – | – | – | – | – | – | – | – | – | – | not sufficient; also recorded: insufficiently soluble | IC50 (human colon cancer HT-29): 7.2 ± 0.8 µM

— paper PMC7288168, “Synthesis and Cytotoxic Activity of Chiral Sulfonamides Based on the 2-Azabicycloalkane Skeleton” (Molecules, 2020)
